Assay results from patent US8906825B2, “Herbicidal compositions comprising 4-amino-3-chloro-5-fluoro-6-(4-chloro-2-fluoro-3-methoxyphenyl) pyridine-2-carboxylic acid or a derivative thereof and triazolopyrimidine sulfonamides” (Dow AgroSciences LLC, priority 2012, dated 2014).

How the values were obtained:
Assay type in all cases: in vivo
[1] = tested on: ECHCG (Echinochloa crusgalli (L.) Beauv., barnyardgrass); experiment: In-water applied herbicidal mixtures, transplanted paddy rice, greenhouse (Example II); details: Diclosulam 6.62 gai/ha
Procedure: (§1) Weed seeds or nutlets of the desired test plant species were planted in puddled soil (mud) prepared by mixing a shredded, non-sterilized mineral soil (50.5 percent silt, 25.5 percent clay, and 24 percent sand, with a pH of about 7.6 and an organic matter content of about 2.9 percent) and water at a 1:1 volumetric ratio. The prepared mud was dispensed in 365 mL aliquots into 16-ounce (oz.) non-perforated plastic pots with a surface area of 86.59 square centimeters (cm^2) leaving a headspace of 3 centimeters in each pot. Mud was allowed to dry overnight prior to planting or transplanting. Rice seeds were planted in Sun Gro MetroMix® 306 planting mixture, which typically has a pH of 6.0 to 6.8 and an organic matter content of about 30 percent, in plastic plug trays. Seedlings at the second or third leaf stage of growth were transplanted into 840 mL of mud contained in 32-oz. non-perforated plastic pots with a surface area of 86.59 cm^2 4 days prior to herbicide application. The paddy was created by filling the headspace of the pots with 2.5 to 3 cm of water. When required to ensure good germination and healthy plants, a fungicide treatment and/or other chemical or physical treatment was applied. The plants were grown for 4-22 days in a greenhouse with an approximate 14 h photoperiod which was maintained at about 29′C during the day and about 26° C. during the night. Nutrients were added as Osmocote® (19:6:12, N:P:K+minor nutrients) at 2 g per 16-oz. pot and 4 g per 32-oz. pot. Water was added on a regular basis to maintain the paddy flood, and supplemental lighting was provided with overhead metal halide 1000-Watt lamps as necessary. The plants were employed for testing when they reached the first through fourth true leaf stage.
(§2) Treatments consisted of the acid or esters of 4-amino-3-chloro-5-fluoro-6-(4-chloro-2-fluoro-3-methoxy-phenyl)pyridine-2-carboxylic acid (compound A) each formulated as an SC and various herbicidal components alone and in combination. Forms of compound A were applied on an acid equivalent basis.
(§3) Other herbicidal components were applied on an active ingredient basis and included acetolactate synthase (ALS)-inhibiting herbicides (sulfonamide chemical class) penoxsulam formulated as Grasp® SC (GF-443), diclosulam formulated as Strongarm®, and cloransulam-methyl formulated as FirstRate®.
(§4) Treatment requirements for each compound or herbicidal component were calculated based upon the rates being tested, the concentration of active ingredient or acid equivalent in the formulation, an application volume of 2 mL per component per pot, and an application area of 86.59 cm^2 per pot.
(§5) For formulated compounds, a measured amount was placed in an individual 100 or 200 mL glass vial and was dissolved in a volume of 1.25% (v/v) Agri-Dex® crop oil concentrate to obtain each application solution.
(§6) Applications were made by injecting with a pipetter appropriate amounts of the application solutions, individually and sequentially, into the aqueous layer of the paddy. Control plants were treated in the same manner with the solvent blank. Applications were made so that all treated plant material received the same concentrations of acetone and crop oil concentrate.
(§7) The treated plants and control plants were placed in a greenhouse as described above and water was added as needed to maintain a paddy flood. After approximately 3 weeks the condition of the test plants as compared with that of the untreated plants was determined visually and scored on a scale of 0 to 100 percent where 0 corresponds to no injury or growth inhibition and 100 corresponds to complete kill.
(§8) Colby's equation was used to determine the herbicidal effects expected from the mixtures (Colby, S. R. 1967. Calculation of the synergistic and antagonistic response of herbicide combinations. Weeds 15:20-22.).
(§9) The following equation was used to calculate the expected activity of mixtures containing two active ingredients, A and B: Expected=A+B−(A×B/100)

[2] = tested on: CYPRO (Cyperus rotundus L., purple nutsedge); experiment: as above
Procedure: as §1, §2, §3, §4, §5, §6, §7, §8, §9

[3] = tested on: LEFCH (Leptochloa chinensis (L.) Nees, Chinese sprangletop); experiment: Postemergence foliar-applied herbicidal mixtures, direct seeded rice, greenhouse (Example I)
Description: (§10) Seeds or nutlets of the desired test plant species were planted in a soil matrix prepared by mixing a loam or sandy loam soil (e.g., 28.6 percent silt, 18.8 percent clay, and 52.6 percent sand, with a pH of about 5.8 and an organic matter content of about 1.8 percent) and calcareous grit in an 80 to 20 ratio. The soil matrix was contained in plastic pots with a volume of 1 quart and a surface area of 83.6 square centimeters (cm^2). When required to ensure good germination and healthy plants, a fungicide treatment and/or other chemical or physical treatment was applied. The plants were grown for 8-22 days in a greenhouse with an approximate 14 h photoperiod which was maintained at about 29° C. during the day and about 26° C. during the night. Nutrients (Peters Excel® 15-5-15 5-Ca 2-Mg and iron chelate) were applied in the irrigation solution as needed and water was added on a regular basis. Supplemental lighting was provided with overhead metal halide 1000-Watt lamps as necessary. The plants were employed for testing when they reached the first through fourth true leaf stage.
as §2, with “(Compound A),” for “(compound A)”, “SC (suspension concentrate),” for “SC”
as §3, with “SC,” for “SC (GF-443),”, “FirstRate®, flumetsulam formulated as Flumetsulam WG, and metosulam formulated as Eclipse®.” for “FirstRate®.”
(§11) Treatment requirements were calculated based upon the rates being tested, the concentration of active ingredient or acid equivalent in the formulation, and a 12 mL application volume at a rate of 187 L/ha.
(§12) For treatments comprised of formulated compounds, measured amounts of compounds were placed individually in 25 mL glass vials and diluted in a volume of 1.25% (v/v) Agri-Dex® crop oil concentrated to obtain 12× stock solutions. […] Application solutions were prepared by adding an appropriate amount of each stock solution (e.g., 1 mL) and diluted to the appropriate final concentrations with the addition of 10 mL of an aqueous mixture of 1.25% (v/v) crop oil concentrate so that the final spray solutions contained 1.25+/−0.05% (v/v) crop oil concentrate.
(§13) All stock solutions and applications solutions were visually inspected for compound compatibility prior to application. Spray solutions were applied to the plant material with an overhead Mandel track sprayer equipped with an 8002E nozzle calibrated to deliver 187 L/ha over an application area of 0.503 m^2 at a spray height of 18 to 20 inches (46 to 50 cm) above average plant canopy height. Control plants were sprayed in the same manner with the solvent blank.
as §7, with “watered by sub-irrigation” for “water was added as needed”, “prevent wash-off of the test compounds.” for “maintain a paddy flood.”, “weeks,” for “weeks”
as §8, §9

[4] = tested on: BRAPP (Brachiaria platyphylla (Griseb.) Nash, broadleaf signalgrass); experiment: as above
Description: as §10
as §2, with “(Compound A),” for “(compound A)”, “SC (suspension concentrate),” for “SC”
as §3, with “SC,” for “SC (GF-443),”, “FirstRate®, flumetsulam formulated as Flumetsulam WG, and metosulam formulated as Eclipse®.” for “FirstRate®.”
as §11, §12, §13
as §7, with “watered by sub-irrigation” for “water was added as needed”, “prevent wash-off of the test compounds.” for “maintain a paddy flood.”, “weeks,” for “weeks”
as §8, §9

[5] = tested on: ECHCG (Echinochloa crusgalli (L.) Beauv., barnyardgrass); experiment: as above
Description: as §10
as §2, with “(Compound A),” for “(compound A)”, “SC (suspension concentrate),” for “SC”
as §3, with “SC,” for “SC (GF-443),”, “FirstRate®, flumetsulam formulated as Flumetsulam WG, and metosulam formulated as Eclipse®.” for “FirstRate®.”
as §11, §12, §13
as §7, with “watered by sub-irrigation” for “water was added as needed”, “prevent wash-off of the test compounds.” for “maintain a paddy flood.”, “weeks,” for “weeks”
as §8, §9

[6] = tested on: IPOHE (Ipomoea hederacea Jacq., ivyleaf morningglory); experiment: as above
Description: as §10
as §2, with “(Compound A),” for “(compound A)”, “SC (suspension concentrate),” for “SC”
as §3, with “SC,” for “SC (GF-443),”, “FirstRate®, flumetsulam formulated as Flumetsulam WG, and metosulam formulated as Eclipse®.” for “FirstRate®.”
as §11, §12, §13
as §7, with “watered by sub-irrigation” for “water was added as needed”, “prevent wash-off of the test compounds.” for “maintain a paddy flood.”, “weeks,” for “weeks”
as §8, §9

[7] = Compound A n-Butyl Ester 4.38 gae/ha
[8] = Compound A n-Butyl Ester 8.75 gae/ha
[9] = Compound A n-Butyl Ester 17.5 gae/ha

In the case of `CCOc1nc(F)cc2nc(S(=O)(=O)Nc3c(Cl)cccc3Cl)nn12` [Diclosulam, N-(2,6-dichlorophenyl)-5-ethoxy-7-fluoro[1,2,4]triazolo[1,5-c]pyrimidine-2-sulfonamide, reference compound], the “Visual Weed Control (%) - 21 DAA ECHCG Obs” value [1] is reported as 70%, the “Visual Weed Control (%) - 21 DAA CYPRO Obs” value ([2]; Diclosulam 6.62 gai/ha) is reported as 80% and the “Visual Weed Control (%) - 21 DAA CYPRO Obs” value ([2]; Diclosulam 13.25 gai/ha) is reported as 80%. The “Visual Weed Control (%) - 20 DAA LEFCH Obs” value ([3]; Diclosulam 6.62 gai/ha, Table 4) was 0%, the “Visual Weed Control (%) - 20 DAA LEFCH Obs” value ([3]; Diclosulam 6.62 gai/ha, Table 5) was 0% and the “Visual Weed Control (%) - 20 DAA LEFCH Obs” value ([3]; Diclosulam 13.25 gai/ha, Table 5) was 20%.

`COc1cc(OC)n2nc(S(=O)(=O)Nc3c(Cl)ccc(C)c3Cl)nc2n1` [Metosulam, N-(2,6-dichloro-3-methylphenyl)-5,7-dimethoxy[1,2,4]triazolo[1,5-a]pyrimidine-2-sulfonamide, reference compound] was tested, and the “Visual Weed Control (%) - 22 DAA LEFCH Obs” value ([3]; Metosulam 6.25 gai/ha) was 15%.

With `CCCCOC(=O)c1nc(-c2ccc(Cl)c(OC)c2F)c(F)c(N)c1Cl` [Compound A n-Butyl Ester] the “Visual Weed Control (%) - 21 DAA BRAPP Obs” value [4, 7] was 0%, the “Visual Weed Control (%) - 21 DAA BRAPP Obs” value [4, 8] was 40% and the “Visual Weed Control (%) - 27 DAA ECHCG Obs” value [5, 7] was 0%. The “Visual Weed Control (%) - 27 DAA ECHCG Obs” value [5, 8] was 0%, the “Visual Weed Control (%) - 27 DAA ECHCG Obs” value [5, 9] was 90% and the “Visual Weed Control (%) - 27 DAA IPOHE Obs” value [6, 7] was 10%. For the same compound, the “Visual Weed Control (%) - 27 DAA IPOHE Obs” value [6, 8] was 10% and the “Visual Weed Control (%) - 27 DAA IPOHE Obs” value [6, 9] was 10%.
